Test results as given in patent publication US6936585B2, “Corticotropin releasing factor 2 receptor agonists” (priority 2002, dated 2005).
Ends that are not written are not given here. Peptide text beside a SMILES is read from it.

How the values were obtained:
CRF1R = target: T1, CRF1R (Homo sapiens, UniProt P34998); assay: CRF1R agonist activation (EC50 / Emax), called comparative CRF binding; format: cell-based; details: for EC50: read-out: CRF1R EC50; for Emax: read-out: CRF1R Emax
T1 sequence (P34998 24-415): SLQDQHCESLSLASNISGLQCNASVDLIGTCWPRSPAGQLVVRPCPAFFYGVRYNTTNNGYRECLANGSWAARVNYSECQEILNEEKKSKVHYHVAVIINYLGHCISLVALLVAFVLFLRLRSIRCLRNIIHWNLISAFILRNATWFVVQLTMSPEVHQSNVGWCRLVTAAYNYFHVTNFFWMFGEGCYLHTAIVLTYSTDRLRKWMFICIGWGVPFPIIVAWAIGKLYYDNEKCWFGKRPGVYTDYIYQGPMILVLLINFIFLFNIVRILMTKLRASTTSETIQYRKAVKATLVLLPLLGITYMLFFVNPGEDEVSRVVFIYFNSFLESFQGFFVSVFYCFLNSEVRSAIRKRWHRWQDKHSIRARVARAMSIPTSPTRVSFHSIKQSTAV
Outline: (§1)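 Read-out is Gαs-driven cAMP induction, quantified directly in lysates or through CRE-reporter gene expression, after treating CRF1R- or CRF2R-expressing cells with peptide. Vehicle-treated cells serve as the comparison.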

CRF2R = target: T2, CRF2R (Homo sapiens, UniProt Q13324); assay: CRF2R agonist activation (EC50 / Emax), called comparative CRF binding; format: cell-based; details: for EC50: read-out: CRF2R EC50; for Emax: read-out: CRF2R Emax
T2 sequence (Q13324 1-411): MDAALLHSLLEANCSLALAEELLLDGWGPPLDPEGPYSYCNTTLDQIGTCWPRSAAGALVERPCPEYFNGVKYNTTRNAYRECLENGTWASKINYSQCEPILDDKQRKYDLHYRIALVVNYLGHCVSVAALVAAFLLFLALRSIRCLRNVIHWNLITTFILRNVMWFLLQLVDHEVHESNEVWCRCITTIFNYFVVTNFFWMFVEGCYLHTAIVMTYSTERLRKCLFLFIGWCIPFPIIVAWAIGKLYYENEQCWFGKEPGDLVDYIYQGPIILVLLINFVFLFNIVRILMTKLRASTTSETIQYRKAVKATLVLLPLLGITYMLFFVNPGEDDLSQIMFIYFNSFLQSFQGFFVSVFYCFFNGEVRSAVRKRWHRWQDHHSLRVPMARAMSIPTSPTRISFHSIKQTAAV
Outline: as §1

**Q.** `CC[C@H](C)[C@H](N)C(=O)N[C@H](C(=O)N[C@@H](CC(C)C)C(=O)N[C@@H](CO)C(=O)N[C@@H](CC(C)C)C(=O)N[C@@H](CC(=O)O)C(=O)N[C@H](C(=O)N1CCC[C@H]1C(=O)N[C@H](C(=O)NCC(=O)N[C@@H](CC(C)C)C(=O)N[C@@H](CC(C)C)C(=O)N[C@@H](CCC(N)=O)C(=O)N[C@H](C(=O)N[C@@H](CC(C)C)C(=O)N[C@@H](CC(C)C)C(=O)N[C@@H](CCC(=O)O)C(=O)N[C@@H](CCC(N)=O)C(=O)N[C@@H](C)C(=O)N[C@@H](CCCNC(=N)N)C(=O)N[C@@H](C)C(=O)N[C@@H](CC(=O)O)C(=O)N[C@@H](C)C(=O)N[C@@H](C)C(=O)N[C@@H](CCCNC(=N)N)C(=O)N[C@@H](CCC(=O)O)C(=O)N[C@@H](CCC(N)=O)C(=O)N[C@@H](C)C(=O)N[C@H](C(=O)N[C@H](C(=O)N[C@@H](CC(N)=O)C(=O)N[C@@H](C)C(=O)N[C@@H](CCCNC(=N)N)C(=O)N[C@H](C(=O)N[C@@H](CC(C)C)C(=O)N[C@@H](C)C(=O)N[C@@H](CCCNC(=N)N)C(=O)N[C@H](C(N)=O)C(C)C)[C@@H](C)CC)[C@@H](C)O)[C@@H](C)O)[C@@H](C)CC)[C@@H](C)CC)C(C)C)C(C)C` [compound 130] (H-IVLSLDVPIGLLQILLEQARADAAREQATTNARILARV-NH2; N-terminus assumed) was tested. Which EC50 (CRF1R) did it give?
**A.** The EC50 was greater than 100 nM.

**Q.** And the Emax (CRF1R)?
**A.** Its Emax is 9%.

**Q.** What about the EC50 (CRF2R) of the same compound?
**A.** Its EC50 is 8.57 nM.

**Q.** And the Emax (CRF2R)?
**A.** Its Emax is 92%.

**Q.** What does the source list for `CC[C@H](C)[C@H](N)C(=O)N[C@H](C(=O)N[C@@H](CC(C)C)C(=O)N[C@@H](CO)C(=O)N[C@@H](CC(C)C)C(=O)N[C@@H](CC(=O)O)C(=O)N[C@H](C(=O)N1CCC[C@H]1C(=O)N[C@H](C(=O)NCC(=O)N[C@@H](CC(C)C)C(=O)N[C@@H](CC(C)C)C(=O)N[C@@H](CCC(N)=O)C(=O)N[C@H](C(=O)N[C@@H](CC(C)C)C(=O)N[C@@H](CC(C)C)C(=O)N[C@@H](CCC(=O)O)C(=O)N[C@@H](CCC(N)=O)C(=O)N[C@@H](CCC(=O)O)C(=O)N[C@@H](CCCNC(=N)N)C(=O)N[C@@H](C)C(=O)N[C@@H](CCCNC(=N)N)C(=O)N[C@@H](C)C(=O)N[C@@H](C)C(=O)N[C@@H](CCCNC(=N)N)C(=O)N[C@@H](CCC(=O)O)C(=O)N[C@@H](CCC(N)=O)C(=O)N[C@@H](C)C(=O)N[C@H](C(=O)N[C@H](C(=O)N[C@@H](CC(N)=O)C(=O)N[C@@H](C)C(=O)N[C@@H](CCCNC(=N)N)C(=O)N[C@H](C(=O)N[C@@H](CC(C)C)C(=O)N[C@@H](C)C(=O)N[C@@H](CCCNC(=N)N)C(=O)N[C@H](C(N)=O)C(C)C)[C@@H](C)CC)[C@@H](C)O)[C@@H](C)O)[C@@H](C)CC)[C@@H](C)CC)C(C)C)C(C)C` [compound 119] (H-IVLSLDVPIGLLQILLEQERARAAREQATTNARILARV-NH2; N-terminus assumed)?
**A.** EC50 (CRF1R): > 100 nM; Emax (CRF1R): 3%; EC50 (CRF2R): 3.57 nM; Emax (CRF2R): 95%

**Q.** With `CC[C@H](C)[C@H](NC(=O)[C@H](Cc1c[nH]cn1)NC(=O)[C@H](C)NC(=O)[C@H](CC(N)=O)NC(=O)[C@H](CCC(N)=O)NC(=O)[C@H](CCC(=O)O)NC(=O)[C@H](C)NC(=O)[C@H](CCCNC(=N)N)NC(=O)[C@H](CCC(=O)O)NC(=O)[C@H](CCCNC(=N)N)NC(=O)[C@H](CCC(N)=O)NC(=O)[C@H](CO)NC(=O)[C@H](CCC(N)=O)NC(=O)[C@@H](NC(=O)[C@H](CCCCN)NC(=O)[C@H](CCC(=O)O)NC(=O)[C@H](CC(C)C)NC(=O)[C@H](CCC(=O)O)NC(=O)[C@H](CC(C)C)NC(=O)[C@H](CC(C)C)NC(=O)[C@@H](NC(=O)[C@H](CCCNC(=N)N)NC(=O)[C@H](CC(C)C)NC(=O)[C@H](CC(C)C)NC(=O)[C@H](CC(C)C)NC(=O)[C@H](CC(C)C)NC(=O)[C@@H]1CCCN1C(=O)[C@H](CC(C)C)NC(=O)[C@H](CC(=O)O)NC(=O)[C@@H](NC(=O)[C@H](CO)NC(=O)[C@H](CC(C)C)NC(=O)[C@H](CO)NC(=O)[C@@H]1CCCN1C(=O)[C@H](CC(N)=O)NC(=O)[C@@H](N)CC(=O)O)[C@@H](C)CC)[C@@H](C)O)[C@@H](C)O)C(=O)N[C@@H](Cc1ccccc1)C(=O)N[C@@H](C)C(=O)N[C@@H](Cc1c[nH]cn1)C(=O)N[C@H](C(N)=O)C(C)C` [compound 328] (H-DNPSLSIDLPLLLLRTLLELEKTQSQRERAEQNAHIFAHV-NH2; N-terminus assumed) as the compound, how does the EC50 (CRF1R) read?
**A.** Its EC50 is no less than 1000 nM.

**Q.** What about the Emax (CRF1R) of the same compound?
**A.** The Emax was 30.7%.

**Q.** And the EC50 (CRF2R)?
**A.** Its EC50 is 11.7 nM.

**Q.** What about the Emax (CRF2R) of the same compound?
**A.** Its Emax is 95.7%.

**Q.** What does the source list for `CC[C@H](C)[C@H](N)C(=O)N[C@H](C(=O)N[C@@H](CC(C)C)C(=O)N[C@@H](CO)C(=O)N[C@@H](CC(C)C)C(=O)N[C@@H](CC(=O)O)C(=O)N[C@H](C(=O)N1CCC[C@H]1C(=O)N[C@H](C(=O)NCC(=O)N[C@@H](CC(C)C)C(=O)N[C@@H](CC(C)C)C(=O)N[C@@H](CCC(N)=O)C(=O)N[C@H](C(=O)N[C@@H](CC(C)C)C(=O)N[C@@H](CC(C)C)C(=O)N[C@@H](CCC(=O)O)C(=O)N[C@@H](CCC(N)=O)C(=O)N[C@@H](CCC(=O)O)C(=O)N[C@@H](CCCCN)C(=O)N[C@@H](CCC(=O)O)C(=O)N[C@@H](CCCCN)C(=O)N[C@@H](CCCCN)C(=O)N[C@@H](CCCNC(=N)N)C(=O)N[C@@H](CCCCN)C(=O)N[C@@H](CCC(=O)O)C(=O)N[C@H](C(=O)N[C@@H](CC(N)=O)C(=O)N[C@@H](C)C(=O)N[C@@H](CCCNC(=N)N)C(=O)N[C@H](C(=O)N[C@@H](CC(C)C)C(=O)N[C@@H](C)C(=O)N[C@@H](CCCNC(=N)N)C(=O)N[C@H](C(N)=O)C(C)C)[C@@H](C)CC)[C@@H](C)O)[C@@H](C)CC)[C@@H](C)CC)C(C)C)C(C)C` [compound 132] (H-IVLSLDVPIGLLQILLEQEKEKKRKETNARILARV-NH2; N-terminus assumed)?
**A.** EC50 (CRF1R): > 100 nM; Emax (CRF1R): 8%; EC50 (CRF2R): 7.53 nM; Emax (CRF2R): 88%

**Q.** How did the Emax (CRF1R) turn out when “SQEPPISLDLPIGLLREVLEMTKADQLAQQAHSNRKLLDIA-NH2 [compound 93]” was run?
**A.** Its Emax is 5%.

**Q.** What about the Emax (CRF2R) of the same compound?
**A.** The Emax was 6.4%.

**Q.** For `CC[C@H](C)[C@H](N)C(=O)N[C@H](C(=O)N[C@@H](CC(C)C)C(=O)N[C@@H](CO)C(=O)N[C@@H](CC(C)C)C(=O)N[C@@H](CC(=O)O)C(=O)N[C@H](C(=O)N1CCC[C@H]1C(=O)N[C@H](C(=O)NCC(=O)N[C@@H](CC(C)C)C(=O)N[C@@H](CC(C)C)C(=O)N[C@@H](CCC(N)=O)C(=O)N[C@H](C(=O)N[C@@H](CC(C)C)C(=O)N[C@@H](CC(C)C)C(=O)N[C@@H](CCC(=O)O)C(=O)N[C@@H](CCSC)C(=O)N[C@@H](C)C(=O)N[C@@H](CCCNC(=N)N)C(=O)N[C@@H](C)C(=O)N[C@@H](CCC(=O)O)C(=O)N[C@@H](CCC(N)=O)C(=O)N[C@@H](CC(C)C)C(=O)N[C@@H](C)C(=O)N[C@@H](CCC(N)=O)C(=O)N[C@@H](CCC(N)=O)C(=O)N[C@@H](C)C(=O)N[C@@H](Cc1c[nH]cn1)C(=O)N[C@@H](CO)C(=O)N[C@@H](CC(N)=O)C(=O)N[C@@H](CCCNC(=N)N)C(=O)N[C@@H](CCCCN)C(=O)N[C@@H](CC(C)C)C(=O)N[C@@H](CCSC)C(=O)N[C@@H](CCC(=O)O)C(=O)N[C@H](C(=O)N[C@H](C(N)=O)[C@@H](C)CC)[C@@H](C)CC)[C@@H](C)CC)[C@@H](C)CC)C(C)C)C(C)C` [compound 164] (H-IVLSLDVPIGLLQILLEMARAEQLAQQAHSNRKLMEII-NH2; N-terminus assumed), which Emax (CRF1R) is on record?
**A.** Its Emax is 26%.

**Q.** And the Emax (CRF2R)?
**A.** The Emax was 92%.

**Q.** Which EC50 (CRF1R) does the source give for `CC[C@H](C)[C@H](NC(=O)[C@H](CCCNC(=N)N)NC(=O)[C@H](C)NC(=O)[C@H](CC(N)=O)NC(=O)[C@H](CCC(N)=O)NC(=O)[C@H](CCC(=O)O)NC(=O)[C@H](C)NC(=O)[C@H](CCCNC(=N)N)NC(=O)[C@H](CCC(=O)O)NC(=O)[C@H](CCCNC(=N)N)NC(=O)[C@H](CCC(N)=O)NC(=O)[C@H](CO)NC(=O)[C@H](CCC(N)=O)NC(=O)[C@@H](NC(=O)[C@H](CCCCN)NC(=O)[C@H](CCC(=O)O)NC(=O)[C@H](CC(C)C)NC(=O)[C@H](CCC(=O)O)NC(=O)[C@H](CC(C)C)NC(=O)[C@H](CC(C)C)NC(=O)[C@@H](NC(=O)[C@H](CCCNC(=N)N)NC(=O)[C@H](CC(C)C)NC(=O)[C@H](CC(C)C)NC(=O)[C@H](Cc1ccccc1)NC(=O)[C@H](Cc1ccccc1)NC(=O)[C@@H]1CCCN1C(=O)[C@@H](NC(=O)[C@H](CC(=O)O)NC(=O)[C@@H](NC(=O)[C@H](CO)NC(=O)[C@H](CC(C)C)NC(=O)[C@H](CO)NC(=O)[C@@H]1CCCN1C(=O)[C@H](CC(N)=O)NC(=O)[C@@H](N)CC(=O)O)[C@@H](C)CC)C(C)C)[C@@H](C)O)[C@@H](C)O)C(=O)N[C@@H](Cc1ccccc1)C(=O)N[C@@H](C)C(=O)N[C@@H](CCCNC(=N)N)C(=O)N[C@H](C(N)=O)C(C)C` [compound 386] (H-DNPSLSIDVPFFLLRTLLELEKTQSQRERAEQNARIFARV-NH2; N-terminus assumed) here?
**A.** Its EC50 is no less than 1000 nM.

**Q.** And the Emax (CRF1R)?
**A.** The Emax was 78.2%.

**Q.** What about the EC50 (CRF2R) of the same compound?
**A.** Its EC50 is 8.7 nM.

**Q.** What about the Emax (CRF2R) of the same compound?
**A.** Its Emax is 96%.
